Experimental data published in patent US9168281B2, “Kit for treating a wound” (priority 2011, dated 2015).

Key:
Assay in all cases: Phenol Red Dextrose broth growth test of product containing CPC
Format in all cases: cell-based
Conditions in all cases: 37° C., 24 hours
Staph aureus (non MRSA) = tested on: Staph aureus (non MRSA)
Procedure: (§1) Phenol Red Dextrose broth tubes were prepared and a small loop of an organism cultured in peptone broth for 24 hours at 37° C. was used to inoculate the tubes in duplicate to a series of ten. […] The inoculated tubes were incubated at a temperature of 37° C. for 24 hours and growth of organism assessed compared to an inoculated tube without presence of product.

Strep pyogenes = tested on: Strep pyogenes
Procedure: as §1

Strep equi = tested on: Strep equi
Procedure: as §1

Candida albicans = tested on: Candida albicans
Procedure: as §1

Staph aureus (MRSA) = tested on: Staph aureus (MRSA)
Procedure: as §1

Proteus vulgaris = tested on: Proteus vulgaris
Procedure: as §1

P. aeruginosa = tested on: P. aeruginosa
Procedure: as §1

Measured: growth of organism

CCCCCCCCCCCCCCCC[n+]1ccccc1 [CPC, cetyl pyridinium chloride]
n/g: Staph aureus (non MRSA); 0.1 mL CPC (0.004% vol. comp) | Staph aureus (non MRSA); 0.2 mL CPC (0.008% vol. comp) | Staph aureus (non MRSA); 0.3 mL CPC (0.016% vol. comp) | Staph aureus (non MRSA); 0.4 mL CPC (0.032% vol. comp) | Staph aureus (non MRSA); 0.5 mL CPC (0.064% vol. comp) | Staph aureus (non MRSA); 0.6 mL CPC (0.128% vol. comp) | Staph aureus (non MRSA); 0.7 mL CPC (0.256% vol. comp) | Staph aureus (non MRSA); 0.8 mL CPC (0.512% vol. comp) | Staph aureus (non MRSA); 0.9 mL CPC (1.024% vol. comp) | Staph aureus (non MRSA); 1.0 mL CPC (2.048% vol. comp) | Strep pyogenes; 0.1 mL CPC (0.004% vol. comp) | Strep pyogenes; 0.2 mL CPC (0.008% vol. comp) | Strep pyogenes; 0.3 mL CPC (0.016% vol. comp) | Strep pyogenes; 0.4 mL CPC (0.032% vol. comp) | Strep pyogenes; 0.5 mL CPC (0.064% vol. comp) | Strep pyogenes; 0.6 mL CPC (0.128% vol. comp) | Strep pyogenes; 0.7 mL CPC (0.256% vol. comp) | Strep pyogenes; 0.8 mL CPC (0.512% vol. comp) | Strep pyogenes; 0.9 mL CPC (1.024% vol. comp) | Strep pyogenes; 1.0 mL CPC (2.048% vol. comp) | Strep equi; 0.1 mL CPC (0.004% vol. comp) | Strep equi; 0.2 mL CPC (0.008% vol. comp) | Strep equi; 0.3 mL CPC (0.016% vol. comp) | Strep equi; 0.4 mL CPC (0.032% vol. comp) | Strep equi; 0.5 mL CPC (0.064% vol. comp) | Strep equi; 0.6 mL CPC (0.128% vol. comp) | Strep equi; 0.7 mL CPC (0.256% vol. comp) | Strep equi; 0.8 mL CPC (0.512% vol. comp) | Strep equi; 0.9 mL CPC (1.024% vol. comp) | Strep equi; 1.0 mL CPC (2.048% vol. comp) | Candida albicans; 0.1 mL CPC (0.004% vol. comp) | Candida albicans; 0.2 mL CPC (0.008% vol. comp) | Candida albicans; 0.3 mL CPC (0.016% vol. comp) | Candida albicans; 0.4 mL CPC (0.032% vol. comp) | Candida albicans; 0.5 mL CPC (0.064% vol. comp) | Candida albicans; 0.6 mL CPC (0.128% vol. comp) | Candida albicans; 0.7 mL CPC (0.256% vol. comp) | Candida albicans; 0.8 mL CPC (0.512% vol. comp) | Candida albicans; 0.9 mL CPC (1.024% vol. comp) | Candida albicans; 1.0 mL CPC (2.048% vol. comp) | Staph aureus (MRSA); 0.1 mL CPC (0.004% vol. comp) | Staph aureus (MRSA); 0.2 mL CPC (0.008% vol. comp) | Staph aureus (MRSA); 0.3 mL CPC (0.016% vol. comp) | Staph aureus (MRSA); 0.4 mL CPC (0.032% vol. comp) | Staph aureus (MRSA); 0.5 mL CPC (0.064% vol. comp) | Staph aureus (MRSA); 0.6 mL CPC (0.128% vol. comp) | Staph aureus (MRSA); 0.7 mL CPC (0.256% vol. comp) | Staph aureus (MRSA); 0.8 mL CPC (0.512% vol. comp) | Staph aureus (MRSA); 0.9 mL CPC (1.024% vol. comp) | Staph aureus (MRSA); 1.0 mL CPC (2.048% vol. comp) | Proteus vulgaris; 0.1 mL CPC (0.004% vol. comp) | Proteus vulgaris; 0.2 mL CPC (0.008% vol. comp) | Proteus vulgaris; 0.3 mL CPC (0.016% vol. comp) | Proteus vulgaris; 0.4 mL CPC (0.032% vol. comp) | Proteus vulgaris; 0.5 mL CPC (0.064% vol. comp) | Proteus vulgaris; 0.6 mL CPC (0.128% vol. comp) | Proteus vulgaris; 0.7 mL CPC (0.256% vol. comp) | Proteus vulgaris; 0.8 mL CPC (0.512% vol. comp) | Proteus vulgaris; 0.9 mL CPC (1.024% vol. comp) | Proteus vulgaris; 1.0 mL CPC (2.048% vol. comp) | P. aeruginosa; 0.1 mL CPC (0.004% vol. comp) | P. aeruginosa; 0.2 mL CPC (0.008% vol. comp) | P. aeruginosa; 0.3 mL CPC (0.016% vol. comp) | P. aeruginosa; 0.4 mL CPC (0.032% vol. comp) | P. aeruginosa; 0.5 mL CPC (0.064% vol. comp) | P. aeruginosa; 0.6 mL CPC (0.128% vol. comp) | P. aeruginosa; 0.7 mL CPC (0.256% vol. comp) | P. aeruginosa; 0.8 mL CPC (0.512% vol. comp) | P. aeruginosa; 0.9 mL CPC (1.024% vol. comp) | P. aeruginosa; 1.0 mL CPC (2.048% vol. comp)
